Measured values as given in US10336701B2, “Pyridin-2-one derivatives of formula (II) useful as EP3 receptor antagonists” (Janssen Pharmaceutica NV, priority 2017, dated 2019).

Tested on: Sprague Dawley rats
Assay: IV infused EP3 antagonists on circulating insulin and glucose in the sulprostone infusion IVGTT model
Format: in vivo, rat
Settings: SD rats, IV bolus plus infusion at 7×Ki and 10×Ki (targeted)
Text: Biological Example 3—IV Infused EP3 Antagonists on Circulating Insulin and Glucose in the Sulprostone Infusion IVGTT Model
Jugular vein and carotid artery cannulated male Sprague Dawley rats (˜250 g, available from Charles River) were housed one rat per suspended cage in a temperature-controlled room with 12-hour light/dark cycle. The rats were allowed ad libitum access to water and maintained on a regular diet. Animals were acclimated for minimum 5 days prior to the start of the experiment. Experimental procedures were carried out in accordance with institutional standards for animal care and were approved by the institute's animal care and use committee.
A blood sample for insulin and blood chemistry was collected at 20 min (t=−20) prior to the start of dosing with sulprostone and/or test compound (EP3 antagonist). […]
Blood samples from all animals were collected into Heparin treated tubes. Background was measured via a glucometer at the 0 and 2 min time points to ensure that the animal received the glucose bolus. Plasma insulin was measured via a Meso Scale Discovery metabolic assay (available from Meso Scale). Plasma glucose, free fatty acid (FFA), triglycerides, cholesterol and ketones were measured on an OLYMPUS AU400E chemistry analyzer. Observations on animal health were recorded throughout the procedure. […]

CC(C)C(/C=C1\OC(=O)NC1=O)c1ccc(-c2ccc3cccc(F)c3c2)[nH]c1=O (racemic) [Compound #62, (Z)-5-(2-(6-(8-fluoronaphthalen-2-yl)-2-oxo-1,2-dihydropyridin-3-yl)-3-methylbutylidene)oxazolidine-2,4-dione]
reversal of suppression of glucose stimulate insulin secretion (GSIS) by sulprostone: reverse suppression of glucose stimulate insulin secretion (GSIS) by sulprostone
